# Data from US6441184B1, “Fused heteroaromatic glucokinase activators” (Hoffmann-LA Roche Inc., priority 2000, dated 2002).
# Test system: C57BL/6J mice
# Test: Glucokinase activator in vivo screen protocol (blood glucose after oral dosing)
# Settings: administered orally, 50 mg/kg, C57BL/6J mice fasted two hours; active = significant (p<0.05) decrease in blood glucose vs vehicle for two consecutive time points
# Procedure: Glucokinase Activator in vivo Screen Protocol
# C57BL/6J mice are orally dosed via gavage with Glucokinase (GK) activator at 50 mg/kg body weight following a two hour fasting period. Blood glucose determinations are made five times during the six hour post-dose study period.
# Mice (n=6) are weighed and fasted for a two hour period prior to oral treatment. GK activators are formulated at 6.76 mg/ml in Gelucire vehicle (Ethanol:Gelucire44/14:PEG400q.s. 4:66:30 v/w/v. Mice are dosed orally with 7.5 μL formulation per gram of body weight to equal a 50 mg/kg dose. Immediately prior to dosing, a pre dose (time zero) blood glucose reading is acquired by snipping off a small portion of the animals tail (−1 mm) and collecting 15 μL blood into a heparinized capillary tube for analysis. Following GK activator administration, additional blood glucose readings are taken at 1, 2, 4, and 6 hours post dose from the same tail wound. Results are interpreted by comparing the mean blood glucose values of six vehicle treated mice with six GK activator treated mice over the six hour study duration.
row,SMILES,glucokinase activator in vivo activity
1,"CS(=O)(=O)c1ccc([C@@H](CC2CCCC2)C(=O)Nc2nc3ccccc3s2)cc1Cl [Example 19, N-Benzothiazol-2-yl-2(R)-(3-chloro-4-methanesulfonyl-phenyl)-3-cyclopentyl-propionamide]",excellent glucokinase activator in vivo activity
2,"CS(=O)(=O)c1ccc(C(CC2CCCC2)C(=O)Nc2nc3ccccc3[nH]2)cc1Cl (stereo not drawn) [Example 20, N-(1H-Benzoimidazol-2-yl)-2-(3-chloro-4-methanesulfonyl-phenyl)-3-cyclopentyl-propionamide]",excellent glucokinase activator in vivo activity
3,"CS(=O)(=O)c1ccc(C(CC2CCCC2)C(=O)Nc2ccc3ccccc3n2)cc1Cl (stereo not drawn) [Example 22, 2-(3-Chloro-4-methanesulfonyl-phenyl)-3-cyclopentyl-N-quinolin-2-yl-propionamide]",excellent glucokinase activator in vivo activity
